Results reported in patent US7192981B2, “3,4-dihydroxyhydrocinnamic acid derivative” (Bionutrigen Co., Ltd., priority 2005, dated 2007).

Legend:
[1] = test system: IRS-1; experiment: Phosphorylation of IRS-1 in adipose tissue of treated diabetic mice; format: in vivo, mouse; conditions: 2 weeks of DHH105 treatment
Experimental: Adipocytes treated with DHH105 for 2 h or insulin for 10 min were homogenized in 5 ml lysis buffer (20 mM Tris, pH 7.4, 1% SDS, 10% glycerol, 150 mM NaCl, 2 mM EDTA, 20 mM NaF, 1 mM NaVO4, 2 mM sodium pyrophosphate, protease inhibitor cocktail, and phosphatase inhibitor cocktail) with a teflon pestle (15 strokes). Homogenized adipocytes were sonicated for 3 min and solubilized for 30 min. The homogenate was centrifuged at 3,000 g for 10 min at 4° C. The protein concentration of the lysate was determined by the Bradford method. After dilution (1 μg/μl protein concentration), the lysates were incubated with anti-insulin receptor-β (IR-β) antibody (Upstate Biotech, Charlottesville, Va.) or anti-IRS-1 antibody (Upstate Biotech) overnight at 4° C. Protein A Sepharose beads (100 μl, Amersham Pharmacia Biotech) were added and the mixture was gently rocked for 2 h at 4° C. […] The membranes were washed and the immunoreactive proteins were detected with an enhanced chemoluminescence western blot detection kit (Amersham Pharmacia Biotech). To examine whether in vivo treatment of STZ-induced diabetic C57BL/6 mice or ob/ob mice with DHH105 also increases phosphorylation of IR-β, and IRS-1, fat tissue was removed from the mice after 2 weeks of DHH105 treatment and phosphorylation of IR-β and IRS-1 was measured by immunoprecipitation and western blot.

[2] = test system: GLUT4; experiment: GLUT4 translocation, subcellular fractionation and western blot; format: cell-based, rat; conditions: 500 μM, 4 h, vs untreated control adipocytes
Experimental: Adipocytes treated with DHH105 for 4 h or insulin for 30 min were washed three times with HES buffer [8 mM HEPES, 250 mM sucrose, 2 mM EDTA, 20 mM NaF, 50 mM NaVO4, 50 mM sodium pyrophosphate, protease inhibitor cocktail (Sigma), and phosphatase inhibitor cocktail (Sigma), pH 7.4]. Adipocytes were homogenized in 20 ml HES buffer with a potter Elvehjem teflon pestle (15 strokes). Homogenates were centrifuged at 1000 g for 10 min and the supernatant was centrifuged again at 16,000 g for 20 min. The resulting pellet was resuspended in 500 μl HES buffer, carefully laid on a discontinuous sucrose gradient (density top to bottom: 1.0592, 1.1270, 1.1533, 1.1764, 1.2575) and centrifuged at 110,000 g for 70 min. The plasma membrane fraction was obtained from the gradient density of 1.1533, diluted in 50 ml HES buffer, and centrifuged at 16,000 g for 20 min. The pellet (plasma membrane fraction) was resuspended in 500 μl HES buffer and stored at −70° C. To obtain the microsomal membrane fraction, the supernatant from the second centrifugation was centrifuged at 220,000 g for 70 min. The pellet was washed, resuspended in 500 μl HES buffer and stored at −70° C. The protein content of each fraction was measured by the Bradford method. […] The membranes were washed and the immunoreactive proteins were detected with an enhanced chemoluminescence western blot detection kit (Amersham Pharmacia Biotech).

[3] = test system: PI3-kinase; experiment: PI3-kinase assay in adipocyte lysate; format: cell-based, rat; conditions: adipocytes, 500 μM, 2 h
Experimental: Phosphatidylinositide (PI) in DMSO (1 mg/ml) was mixed with an equal volume of buffer A (10 mM HEPES, 100 mM NaCl, 1 mM EGTA, 0.03% NP-40, pH 7.0) and then 10 μl was mixed with an equal volume of buffer B (500 μM [γ-^32P] ATP (10 μCi; Amersham Pharmacia Biotech), 25 mM MgCl2, 15 mM 2-(N-morpholine)ethansulfonic acid, pH 6.8). This mixture was added to 30 μl of adipocyte lysate and incubated for 5 min at room temperature. The kinase reaction was stopped by adding 80 μl of 1 N HCl. A mixture of chloroform and ethanol (1:1, 160 μl) was added to the reaction mixture followed by centrifugation at full speed in a microcentrifuge for 2 min, and 40 μl of the organic phase was extracted. The organic phase was spotted on aluminum-backed silica gel 60 thin layer chromatography (TLC) plates that were pre-soaked in developing solvent (chloroform:methanol:2.2 M NH4OH, 9:7:2), run for 3 h in a TLC chamber with the developing solvent, and air-dried. The amount of phosphoinositides was detected by autoradiography.
In FIG. 7A, the intensity of the PIP3 band was normalized with that of PI, and the relative amount of PIP3 was calculated by (normalized band intensity of sample)/(normalized band intensity of control) (lower panel). Data are means±SEM of three independent experiments.

amount of GLUT4 in the microsomal membrane fraction [2]: decreased
PI3-kinase activity (conversion of PI to PIP3) [3]: significantly increased
SMILES: O=C(CCc1ccc(O)c(O)c1)OCc1cccc2ccccc12 [DHH105, 3,4-dihydroxyhydrocinnamic acid naphthalene methyl ester]
phosphorylation of IRS-1 in adipose tissue ([1]; STZ-induced diabetic C57BL/6 mice): increased
phosphorylation of IRS-1 in adipose tissue ([1]; ob/ob mice): increased
immunoreactive GLUT4 in the plasma membrane fraction [2]: increased
